Two compounds from US20120276200A1, “FORMULATIONS OF QUINOLINONES” (priority 2005, published 2012) can be followed below.

The series can be described thus: Hygroscopicity, DVS experiment (moisture induced weight change). Type of series: physicochemical. Here is the method:
All DVS measurements were carried out at 2.5% relative humidity change per hour.

As to `CC(O)C(=O)O.CN1CCN(c2ccc3nc(-c4c(N)c5c(F)cccc5[nH]c4=O)[nH]c3c2)CC1` [Lactate trial 1, Lactic Acid salt of 4-Amino-5-fluoro-3-[6-(4-methyl-piperazin-1-yl)-1H-benzimidazol-2-yl]-1H-quinolin-2-one], under “55% RH, listed as Lactate trial 3”, the “Moisture induced % weight change” value came to 0.08%. Besides, the “Water uptake in DVS experiment” value (RH above 90%, not completely reversible) was “significant water uptake”. In addition, the “Hygroscopicity in DVS experiment” value (below about 80% RH) was “not hygroscopic”.
On to `CN1CCN(c2ccc3nc(-c4c(N)c5c(F)cccc5[nH]c4=O)[nH]c3c2)CC1.O=C(O)CC(O)C(=O)O` [Malate trial 1], for which the “Moisture induced % weight change” value is reported as 0.08% (55% RH, listed as Malate trial 3) and 0.30% (95% RH, listed as Malate trial 3).
